Test results taken from patent US20190167593A1, “C[…] PHARMACEUTICALLY ACCEPTABLE SALT THEREOF, AND APPLICATION OF SAME” (priority 2016, published 2019).
Converted amounts (≈) assume the structure as drawn. Where two headings read alike, the source gives them in different places.

Experiments:
[1] = tested on: A/Puerto Rico/8/34 (H1N1) (PR8); test: organism not typed; format: cell-based; conditions: MDCK cells, crystal violet staining, 3 days, read-out: IC50 against influenza virus replication (plaque formation), PR8
influenza virus PR8 = conditions: mouse, in vivo
physchem [2] = format: physicochemical; conditions: Non-lactic acid
physchem [3] = format: physicochemical; conditions: molar ratio compound:acid as listed per salt

For Peramivir, which IC50 [1] is on record?
Its IC50 is 17.6 nM.

For `CCOC(=O)C1=C[C@@H](OC(CC)CC)[C@H](NC(C)=O)[C@@H](N)C1.O=P(O)(O)O` [Oseltamivir phosphate, ethyl (3R, 4R, 5S)-4-acetamido-5-amino-3-(1-ethylpropoxy)-1-cyclohexene-1-carboxylate phosphate], which disease symptoms (influenza virus PR8) is on record?
The disease symptoms was “obvious disease symptoms”.

And the IC50 ([1]; phosphate)?
The IC50 was 133 nM.

And the IC50 ([1]; MDCK, 72 h)?
Its IC50 is 130 nM.

What does the source list for `CCCCS(=O)(=O)N[C@@H]1CCCN([C@@H]2C=C(C(=O)O)C[C@H](NC(=N)N)[C@H]2NC(C)=O)C1` [(3R,4R,5S)-4-acetamido-5-guanidino-3-((3R)-3-n-butylsulfonamidopiperidin)-1-cyclohexene-1-carboxylic acid]?
pH VALUE (physchem [2]): 7.8; solubility (physchem [2]; pH 7.8): 2500 µg/mL (≈ 5.45 mM); PH VALUE OF THE SOLUTION (physchem [3]): 7.8; solubility (physchem [3]; water, unit printed in b135 only): 2500 µg/mL; body weight (influenza virus PR8): slightly decreased; IC50 ([1]; listed as COMPOUND TO BE TESTED OF FORMULA I): 252 nM; IC50 ([1]; MDCK, 72 h): 250 nM
